System: HeLa cells
Test: Cytoprotection test to DOX
Format: cell-based
Conditions: native HeLa cells and SupraCell-MIL-100(Fe); nearly identical dose response curve; 2 hours
Procedure: Then, the anticancer drug doxorubicin (diameter about 1.6 nm) or cytotoxic silver (Ag) nanocrystals (diameter about 5.0 nm) were added into the culture medium at different concentrations.
Cytoprotection test to DOX. The cytoprotection test was performed on Supracell-MIL-100 (Fe). Briefly, the native HeLa cells and Supracell-MIL-100 (Fe) were seeded on 96-well plate at the density of 200,000 cells/mL. Then different concentration of DOX (0.01, 0.1, 1.0, 10, 20, and 50 μg/ML) was added in the cell culture media under cell culture condition. After incubation for 2 hours, the viability of the cells or SupraCells was measured by CellTiter-Glo® 2.0 Assay.

COc1cccc2c1C(=O)c1c(O)c3c(c(O)c1C2=O)C[C@@](O)(C(=O)CO)C[C@@H]3O[C@H]1C[C@H](N)[C@H](O)[C@H](C)O1 [doxorubicin]
sensitivity of cells to the drug (viability): sensitive
